Data set [1] relates to non-replicating Mtb. The note with it: grown under low oxygen conditions; cited from earlier work.
The subject of data set [2] is Mtb. Particulars: standard acute infection model, immune incompetent GKO mice; cited from earlier work.
Data set [3] deals with Mtb. Particulars: cited from earlier work.
In data set [4] the test system is Mtb H37Rv. Particulars: early leads of previous study, Figure 1; cited from earlier work.
For data set [5], the system named is Mtb H37Rv. Nature of the data set: Microplate Alamar Blue Assay. The format is cell-based, Mycobacterium tuberculosis.
A short description of data set [6]: Cytotoxicity assay. Type of data set: cell-based. The note with it: Cercopithecus aethiops (African green monkey).
Data set [7] concerns the target T1, Mtb FtsZ (Mycobacterium tuberculosis, UniProt P9WN95). The data set is described as follows: Mtb-FtsZ polymerization inhibitory assay. Particulars: FtsZ 15 µM, GTP 50 µM, 25 °C. Type of data set: biochemical.
In data set [8] the target is T1, Mtb FtsZ. The format is biochemical. The note with it: for TEM: effect on GTP-initiated FtsZ polymerization: FtsZ 5 µM, GTP 25 µM.

Structures are written as SMILES. Converted amounts (≈) assume the structure as drawn. “Also recorded” adds a separate entry of the source. Read-outs that look alike come from different tables or passages of the source.

T1 sequence (P9WN95 whole entry): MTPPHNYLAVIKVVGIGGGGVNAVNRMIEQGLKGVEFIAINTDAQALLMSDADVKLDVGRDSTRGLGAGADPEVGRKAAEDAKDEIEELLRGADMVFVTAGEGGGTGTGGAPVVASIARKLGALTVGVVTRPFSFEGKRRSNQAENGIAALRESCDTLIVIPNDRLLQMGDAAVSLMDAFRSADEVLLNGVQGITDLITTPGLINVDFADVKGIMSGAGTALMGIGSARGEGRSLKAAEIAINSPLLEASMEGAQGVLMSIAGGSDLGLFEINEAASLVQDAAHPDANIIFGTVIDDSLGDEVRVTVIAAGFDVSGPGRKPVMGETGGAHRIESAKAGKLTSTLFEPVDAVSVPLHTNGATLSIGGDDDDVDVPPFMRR

With `CCCCOC(=O)Nc1cc2nc(C3CCCCC3)[nH]c2cc1N(CC)CC` [Compound 1], the “Activity against non-replicating Mtb” value in data set [1] is given as “active”. In data set [2], the Efficacy in vivo entry was “good efficacy”. For the same compound, in data set [3], the Bactericidal activity entry is “bactericidal”. The “MIC of early lead compounds” value in data set [4] is 0.63 µg/mL. Also, the MIC in data set [5] (Mycobacterium tuberculosis, H37RV, read-out: Mtb H37Rv MIC) turned out to be 0.63 µg/mL (≈ 1.63 µM).

Take `CCN(CC)c1cc2[nH]c(C3CCCCC3)nc2cc1NC(=O)OCC(F)(F)F` [Compound 5n, 2-Cyclohexyl-6-N,N-diethylamino-5-trifluoroethoxycarbonylamino-1H-benzo[d]imidazole]: the concentration for half-maximal inhibition (IC50) in data set [6] is greater than 100 µg/mL.

On to `CN(C)c1cc2[nH]c(C3CCCCC3)nc2cc1NC(=O)OCC(F)(F)F` [Compound 5p, 2-Cyclohexyl-5-trifluoroethoxycarbonylamino-6-N,N-dimethylamino-1H-benzo[d]imidazole], for which, in data set [7], the “Inhibition of Mtb FtsZ polymerization (light scattering)” value (“Inhibition of Mtb FtsZ polymerization” below) is reported as “inhibit the assembly of Mtb FtsZ in a dose dependent manner; also recorded: effective dose-dependent inhibition”. The IC50 in data set [6] was greater than 100 µg/mL.

With `CCc1ccc(C(=O)Nc2cc3nc(C4CCCCC4)[nH]c3cc2N(C)C)cc1` [Compound 7c-6, 2-Cyclohexyl-5-(4-ethylbenzamido)-6-N,N-dimethylamino-1H-benzo[d]imidazole], in data set [7], the “Inhibition of Mtb FtsZ polymerization” value is “inhibit the assembly of Mtb FtsZ in a dose dependent manner; also recorded: effective dose-dependent inhibition”.

For `CCCCOC(=O)Nc1cc2nc(C3CCCCC3)[nH]c2cc1N(C)C` [Compound 5f, 5-Butyloxycarbonylamino-2-cyclohexyl-6-N,N-dimethylamino-1H-benzo[d]imidazole], the “Inhibition of Mtb FtsZ polymerization” value in data set [7] is listed as “inhibit the assembly of Mtb FtsZ in a dose dependent manner; also recorded: effective dose-dependent inhibition”. Moreover, the “Potency relative to 1 (Mtb H37Rv MIC)” value in data set [5] is listed as 11 times. Moreover, the “TEM: effect on preformed FtsZ polymers” value in data set [8] (5f 40 µM or 80 µM added after polymerization with GTP 25 µM) is “capable of disrupting the formed FtsZ polymers and aggregates; also recorded: effectively disassembled”. Moreover, the “TEM: effect on GTP-initiated FtsZ polymerization” value was “reduction in the density and population of FtsZ polymers, protofilaments and aggregates” in data set [8] (5f 40 µM); “more apparent” in data set [8] (5f 80 µM).

Consider `O=C(Nc1cc2nc(C3CCCCC3)[nH]c2cc1N1CCCC1)OCC(F)(F)F` [Compound 5o, 2-Cyclohexyl-5-trifluoroethoxycarbonylamino-6-prrolidinyl-1H-benzo[d]imidazole], for which the half-maximal inhibitory concentration (IC50) in data set [6] is greater than 100 µg/mL.

Consider `CCCCOC(=O)Nc1cc2nc(C3CCCCC3)[nH]c2cc1N1CCCC1` [Compound 2], for which the “Activity against non-replicating Mtb” value in data set [1] is reported as “active”. In data set [3], the Bactericidal activity result is recorded as “bactericidal”.

These data come from paper PMC3933301 (Journal of medicinal chemistry, 2013).
